According to patent US20130266649A1, “NOVEL PHARMACEUTICAL COMPOSITION” (priority 2010, published 2013):
“And” between values parts separate entries of the source, which are not always exact repeats. Equal values may be shown once.

Legend:
[1] = FTIH study: single dose (Day 1) pharmacokinetics of Compound tablets; assay type: in vivo; conditions: human; for AUC(0-t): read-out: AUC (0-24); for concentration at 24 h: read-out: C24
Source text: Preliminary PK data was obtained in subjects with solid tumors following single- and repeat-dose oral administration of Compound tablets. The dose-escalation part of the first-time-in-human study (FTIH), involved administration of Compound in one of 3 main dosing regimens:

[2] = 3 week repeat dose oral toxicokinetic/toxicology study in dogs; conditions: for maximum tolerated dose (MTD): oral; for AUC / Cmax at 3 weeks / Cmax: in vivo, po
Source text: (§1) The pharmacokinetics, absorption, distribution, metabolism and elimination of N-{3-[3-cyclopropyl-5-(2-fluoro-4-iodo-phenylamino)-6,8-dimethyl-2,4,7-trioxo-3,4,6,7-tetrahydro-2H-pyrido[4,3-d]pyrimidin-1-yl]phenyl}acetamide and solvates thereof, including the dimethyl sulfoxide solvate (collectively referred to as “Compound” when used in connection with animal models or human clinical trials), were investigated in a series of in vitro investigations and with in vivo oral (gavage) and IV studies in the Balb/c mouse, Sprague Dawley rat (unless otherwise stated), beagle dog and cynomolgus monkey using unlabeled and [14C]-labeled Compound. A list of these studies is included, along with subsequently obtained human clinical results, in Table 1 below. For in vivo studies, various formulations were used. For oral dosing, solutions or suspensions were administered.
(§2) Dose range studies in rats at doses up to 1 mg/kg/day for 14 days and in dogs at doses up to 0.5 mg/kg/day (or 10 mg/m2/day) for 10 days were conducted prior to the studies.
(§3) In vivo toxicology studies were conducted in Sprague Dawley rats and beagle dogs by oral gavage (Table 3). Studies were conducted using the DMSO solvate of Compound formulated as a suspension in 1.5% hydroxypropylmethylcellulose, 5% mannitol, and 0.2% sodium lauryl sulfate. For all toxicology studies, doses are expressed based on body surface area (mg/m2). In general, to convert mg/m2 doses to mg/kg, divide the doses by 8 for rats and 20 for dogs.

[3] = 13 week repeat dose oral toxicokinetic/toxicology study in dogs; conditions: dog; for AUC / Cmax: beagle, in vivo, po
Source text: as §1, §2, §3

[4] = FTIH study: repeat dose (Day 15) pharmacokinetics of Compound tablets; conditions: human;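 further: subjects with solid tumors in a first-in-human dose-escalation study, single and repeated once-daily oral tablet dosing, some regimens starting with a loading dose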
Source text: (§4) Preliminary PK data was obtained in subjects with solid tumors following single- and repeat-dose oral administration of Compound tablets.
(§5) Additional blood samples were taken pre-dose on Day15 of Cycle 1 and Day 1 of further cycles in Part 2 and Part 3 to assess steady state trough levels of Compound.

clinical = conditions: human, plasma
Source text: as §4, §5

[5] = plasma, oral, Day 1, fasting, 6.0 mg loading dose, mean (CV %), N 10
[6] = plasma, oral, Day 1, fasting, 8.0 mg loading dose, mean (CV %), N 7
[7] = plasma, oral, Day 1, fasting, 10.0 mg loading dose, mean (CV %), N 4
[8] = plasma, single oral dose Day 1, fasting, 0.25 mg, individual (N 1)
[9] = plasma, single oral dose Day 1, fasting, 2.0 mg, mean (CV %), N 3
[10] = plasma, single oral dose Day 1, fasting, 2.5 mg, mean (CV %), N 9
[11] = plasma, single oral dose Day 1, fasting, 3.0 mg, mean (CV %), N 12
[12] = plasma, single oral dose Day 1, fasting, 4.0 mg, mean (CV %), N 3
[13] = female, Sprague Dawley, rat, 0.125 mg/m2
[14] = female, Sprague Dawley, rat, 0.25 mg/m2
[15] = female, Sprague Dawley, rat, 0.5 mg/m2
[16] = female, Sprague Dawley, rat, 1 mg/m2
[17] = female, Sprague-Dawley, rat, 0.125 mg/m2
[18] = female, Sprague-Dawley, rat, 0.25 mg/m2
[19] = male, Sprague Dawley, rat, 0.125 mg/m2
[20] = male, Sprague Dawley, rat, 0.25 mg/m2
[21] = male, Sprague Dawley, rat, 0.5 mg/m2
[22] = male, Sprague Dawley, rat, 1 mg/m2
[23] = male, Sprague-Dawley, rat, 0.25 mg/m2
[24] = male, Sprague-Dawley, rat, 0.5 mg/m2

For `CC(=O)Nc1cccc(-n2c(=O)n(C3CC3)c(=O)c3c(Nc4ccc(I)cc4F)n(C)c(=O)c(C)c32)c1` [Compound, N-{3-[3-cyclopropyl-5-(2-fluoro-4-iodo-phenylamino)-6,8-dimethyl-2,4,7-trioxo-3,4,6,7-tetrahydro-2H-pyrido[4,3-d]pyrimidin-1-yl]phenyl}acetamide], the “dose proportionality of AUC (0-24) and Cmax” value ([1]; single dose Day 1, lower than proportional at 8 mg, greater at 10 mg) was “dose proportional up to 6 mg”, the Tmax ([1]; single oral dose Day 1, fasting, 0.25 mg, individual (N 1)) was 1.03 h and the Cmax [1, 5] was 23.2 ng/mL. The AUC(0-t) [1, 5] was 0.197 µg·h/mL, the concentration at 24 h [1, 5] was 6.58 ng/mL and the Tmax ([1]; plasma, oral, Day 1, fasting, 6.0 mg loading dose, median, N 10, read-out: Tmax) was 1.5 h. It also gave a Cmax [1, 6] of 14.9 ng/mL, an AUC(0-t) [1, 6] of 0.161 µg·h/mL and a concentration at 24 h [1, 6] of 5.81 ng/mL. It also gave a Tmax ([1]; plasma, oral, Day 1, fasting, 8.0 mg loading dose, median, N 7, read-out: Tmax) of 3 h, a Cmax [1, 7] of 78.7 ng/mL and an AUC(0-t) [1, 7] of 0.884 µg·h/mL. The concentration at 24 h [1, 7] was 25.5 ng/mL, the Tmax ([1]; plasma, oral, Day 1, fasting, 10.0 mg loading dose, median, N 4, read-out: Tmax) was 1.5 h and the Tmax ([1]; plasma, oral, single dose Day 1, range across doses, read-out: Median Tmax) was 1 to 3 h. It also gave a Cmax [1, 8] of 0.34 ng/mL, a concentration at 24 h [1, 8] of 0 ng/mL and a Cmax [1, 9] of 6.83 ng/mL. For the same compound, the AUC(0-t) [1, 9] was 0.0562 µg·h/mL, the concentration at 24 h [1, 9] was 1.49 ng/mL and the Tmax ([1]; plasma, single oral dose Day 1, fasting, 2.0 mg, median, N 3, read-out: Tmax) was 1.5 h. It also gave a Cmax [1, 10] of 9.68 ng/mL, an AUC(0-t) [1, 10] of 0.0711 µg·h/mL and a concentration at 24 h [1, 10] of 1.81 ng/mL. It also gave a Tmax ([1]; plasma, single oral dose Day 1, fasting, 2.5 mg, median, N 9, read-out: Tmax) of 1.5 h, a Cmax [1, 11] of 11.5 ng/mL and an AUC(0-t) [1, 11] of 0.0814 µg·h/mL. The concentration at 24 h [1, 11] was 3.35 ng/mL, the Tmax ([1]; plasma, single oral dose Day 1, fasting, 3.0 mg, median, N 12, read-out: Tmax) was 1.25 h and the Cmax [1, 12] was 27.1 ng/mL. The AUC(0-t) [1, 12] was 0.223 µg·h/mL, the concentration at 24 h [1, 12] was 8.77 ng/mL and the “maximum tolerated dose (MTD)” value ([2]; dog, 3 weeks) was 0.5 mg/m^2/day. The AUC [2, 13] was 0.0602 µg·h/mL, the Cmax at 3 weeks [2, 13] was 3.33 ng/mL and the AUC [2, 14] was 0.126 µg·h/mL. It also gave a Cmax at 3 weeks [2, 14] of 6.28 ng/mL, an AUC [2, 15] of 0.211 µg·h/mL and a Cmax at 3 weeks [2, 15] of 13 ng/mL. The AUC [2, 16] was 0.46 µg·h/mL, the Cmax at 3 weeks [2, 16] was 29.4 ng/mL and the AUC [2, 17] was 0.102 µg·h/mL. The Cmax [2, 17] was 5.3 ng/mL, the AUC [2, 18] was 0.158 µg·h/mL and the Cmax [2, 18] was 8.03 ng/mL. The Cmax ([2]; female, beagle, dog, 0.3 mg/m2) was 7.19 ng/mL, the AUC ([2]; female, beagle, dog, 0.4 mg/m2) was 0.211 µg·h/mL and the Cmax ([2]; female, beagle, dog, 0.4 mg/m2) was 11.6 ng/mL. For the same compound, the AUC ([2]; female, beagle, dog, 0.5 mg/m2) was 0.205 µg·h/mL, the Cmax ([2]; female, beagle, dog, 0.5 mg/m2) was 12.3 ng/mL and the AUC [2, 19] was 0.035 µg·h/mL. It also gave a Cmax [2, 19] of 1.78 ng/mL, an AUC [2, 20] of 0.0642 µg·h/mL and a Cmax at 3 weeks [2, 20] of 3.5 ng/mL. It also gave an AUC [2, 21] of 0.129 µg·h/mL, a Cmax at 3 weeks [2, 21] of 7.78 ng/mL and an AUC [2, 22] of 0.218 µg·h/mL. For the same compound, the Cmax at 3 weeks [2, 22] was 13.3 ng/mL, the AUC [2, 23] was 0.0954 µg·h/mL and the Cmax [2, 23] was 5.34 ng/mL. The AUC [2, 24] was 0.277 µg·h/mL, the Cmax [2, 24] was 15.4 ng/mL and the AUC ([2]; male, beagle, dog, 0.5 mg/m2) was 0.159 µg·h/mL. For the same compound, the Cmax ([2]; male, beagle, dog, 0.5 mg/m2) was 9.37 ng/mL, the AUC ([2]; male, beagle, dog, 0.75 mg/m2) was 0.282 µg·h/mL and the Cmax ([2]; male, beagle, dog, 0.75 mg/m2) was 19 ng/mL. For the same compound, the “maximum tolerated dose (MTD)” value ([2]; rat, 3 weeks, two doses marked MTD, sex shown by bolding only (lost)) was 0.5 mg/m^2/day and 1 mg/m^2/day, the “maximum tolerated dose (MTD)” value ([2]; rat, 13 weeks) was 0.25 mg/m^2/day and the “No Observed Adverse Effect Level (NOAEL)” value ([3]; 13 weeks, oral) was 0.45 mg/m^2/day. For the same compound, the AUC ([3]; female, 0.15 mg/m2) was 0.0518 µg·h/mL, the Cmax ([3]; female, 0.15 mg/m2) was 2.71 ng/mL and the Cmax ([3]; female, 0.3 mg/m2) was 7.24 ng/mL. For the same compound, the AUC ([3]; female, 0.45 mg/m2/day) was 0.15 µg·h/mL, the Cmax ([3]; female, 0.45 mg/m2/day) was 9.78 ng/mL and the AUC ([3]; male, 0.15 mg/m2) was 0.0456 µg·h/mL. The Cmax ([3]; male, 0.15 mg/m2) was 2.32 ng/mL, the AUC ([3]; male, 0.3 mg/m2) was 0.0955 µg·h/mL and the Cmax ([3]; male, 0.3 mg/m2) was 5.15 ng/mL. The AUC ([3]; male, 0.45 mg/m2/day) was 0.128 µg·h/mL, the Cmax ([3]; male, 0.45 mg/m2/day) was 8.42 ng/mL and the “dose proportionality of mean AUC(0-tau) and Cmax” value ([4]; Day 15) was “generally increased in a dose-proportional manner”. For the same compound, the Mean trough concentration ([4]; Day 15, repeat dosing of 2.5 mg, CV 54%) was 16.8 ng/mL, the “effective half-life (T½, eff)” value ([4]; calculated based on the accumulation ratio) was “approximately 5 days” and the mean accumulation ratio ([4]; repeat daily dosing, recommended dose of 2 mg QD) was 6.6. The AUC (clinical; both, oral, 2 mg) was 0.36 µg·h/mL, the Cmax (clinical; both, oral, 2 mg) was 23.3 ng/mL and the AUC(0-t) (clinical; po, 0.25 mg) was 0.0311 µg·h/mL. It also gave a Cmax (clinical; po, 0.25 mg) of 2.08 ng/mL, a Tmax (clinical; po, 0.25 mg) of 1.5 h and a concentration at 24 h (clinical; po, 0.25 mg) of 1.16 ng/mL. It also gave an AUC(0-t) (clinical; po, 2 mg) of 0.376 µg·h/mL, a Cmax (clinical; po, 2 mg) of 23 ng/mL and a Tmax (clinical; po, 2 mg) of 1.75 h. The concentration at 24 h (clinical; po, 2 mg) was 12.3 ng/mL, the half-life (clinical; po, 2 mg) was 101 h and the AUC(0-t) (clinical; po, 2.5 mg) was 0.448 µg·h/mL. For the same compound, the Cmax (clinical; po, 2.5 mg) was 26.7 ng/mL, the Tmax (clinical; po, 2.5 mg) was 2 h and the concentration at 24 h (clinical; po, 2.5 mg) was 17 ng/mL. It also gave a half-life (clinical; po, 2.5 mg) of 127 h, an AUC(0-t) (clinical; po, 3 mg) of 0.575 µg·h/mL and a Cmax (clinical; po, 3 mg) of 35.8 ng/mL. The Tmax (clinical; po, 3 mg) was 2.1 h, the concentration at 24 h (clinical; po, 3 mg) was 19.5 ng/mL and the half-life (clinical; po, 3 mg) was 110 h.
